Assay results reported in EP4810508A1, “ARABINOSE DERIVATIVE COMPOUND, AND COMPOSITION COMPRISING SAME FOR PREVENTING OR TREATING DEGENERATIVE BRAIN DISEASES” (Digmbio. Inc., priority 2023, dated 2025).
Like-named read-outs stand apart in the source and are kept apart here.

Assays:
HRE/Luc/HEK293 cells = assay: HRE (Hypoxia Response Element) luciferase assay; type: cell-based, human; details: for fold induction at 10 µM / fold induction at 100 µM: Homo sapiens; for HRE assay: increase in HRE expression levels by the test substance relative to the vehicle in HRE/Luc/HEK293 cells
Outline: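 HRE-luciferase HEK293 cells in MEM/10% FBS pretreated with compound 6 h, then held under hypoxia (0.1% O2) 18 h; luminescence read after lysis. Scored as fold increase over vehicle, with twofold threshold at 100, 10 or 1 µM.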

male ICR mice [1] = assay: Scopolamine-induced cognitive impairment model: Y-maze test; type: in vivo; details: for percent recovery of cognitive function (Y-maze) at 50 mg/kg: Mus musculus, po, 168 h; for in vivo Y-maze (%): spontaneous alternation
Source text: (§1) A memory loss rodent animal model induced by scopolamine intraperitoneal administration is used, and an evaluation method for memory uses a Y-maze test and a passive avoidance test (PAT). Scopolamine is a representative experimental model showing an impairment of cognitive function similar to AD patients by blocking neurotransmitters when administered to an animal as an antagonist of a muscarinic acetylcholine receptor, and as a cognitive function evaluation technique, a Y-maze test and a passive avoidance experiment, which are general and representative methods, were used, and in order to objectify the efficacy levels of the compounds, a group administered with donepezil (Aricept, Eisa) as a positive control material was separately provided to compare the efficacy levels of the compounds.
(§2) In order to evaluate cognitive function, 5-week-old male ICR mice were used, the compounds to be evaluated were prepared at a dose of 50 mg/kg/ml and repeatedly orally administered at a predetermined time for 7 days, and the positive control material was carried out at 5 mg/kg/ml. After the last administration, after 30 minutes of intraperitoneal administration of 1 mg/kg/2 ml of scopolamine, a Y-maze test and a passive avoidance test, which are cognitive function evaluations, were performed.
The Y-maze test is a method for evaluating the ability to sequentially act as an experiment for measuring short-term memory. The measurement equipment is composed of three branches, each branch has a length of 42 cm, a width of 3 cm, and a height of 12 cm, and an angle at which three branches are folded is 120°. Experimental animals are put into each branch for 8 minutes, and the number of times of entering the branches to the tail of the experimental animal and the case of being sequentially received in each branch are scored (actual alternation). The alternation behavior is defined as entering not to overlap all three, and is calculated by the following equation. [formula]

male ICR mice [2] = assay: Scopolamine-induced cognitive impairment model: passive avoidance test (PAT); type: in vivo; details: for percent recovery of memory in passive avoidance test (normal group = 100, scopolamine control = 0) at 50 mg/kg: Mus musculus, po, 168 h, read-out: in vivo(effect) PAT (%); for in vivo PAT: time staying in bright room (step-through latency); for cognitive function recovery compared to normal animals, passive avoidance test (effect %): compounds 50 mg/kg, orally for 7 days, scopolamine 1 mg/kg intraperitoneal
Source text: as §1, §2
In addition, the passive avoidance test was conducted using an avoidance learning box (Jeondo B&P, Korea, Seoul), and the avoidance learning box is divided into a dark room and a bright room, and when a laboratory animal is put into a bright room, the subject goes beyond the dark room. At the moment, an electric shock of 0.5 mA is applied for 5 seconds, and when the next day experimental animal is put back into a bright room, an electric shock in a dark room is memorized and stay in a bright room. In this case, a step-through latency is measured to evaluate memory. The efficacy of the compounds of the present invention against the normal group and the control group in the Y-maze test and the passive avoidance test was described in the following Table 3 (Scopolamine-induced cognitive impairment model result).

[3] = HEK293, fold increase of HRE expression, hypoxic conditions (O2 0.1%) 18 hours, Table 2, read-out: HRE-increasing 10uM
[4] = read-out: in vivo(effect) Y-maze (%)
[5] = scopolamine 1 mg/kg i.p., compounds 50 mg/kg oral for 7 days, donepezil 5 mg/kg (avg.)
[6] = HEK293, fold increase of HRE expression, hypoxic conditions (O2 0.1%) 18 hours, Table 2, read-out: HRE-increasing 100uM
[7] = read-out: cognitive function recovery compared to normal animals, Y-maze experiment (effect %)
[8] = HEK293, 18 h, Table 2 (Examples 37-74, 52), read-out: HKt-increasing 10uM
[9] = HEK293, 18 h, Table 2 (Examples 37-74, 52), read-out: HKt-increasing 100uM
[10] = effect compared to normal group (100) and control group (0), compounds 50 mg/kg oral for 7 days, donepezil 5 mg/kg (avg.)
[11] = range over experiment sets, donepezil 5 mg/kg oral for 7 days, scopolamine 1 mg/kg i.p.
[12] = range over experiment sets, effect compared to normal and control group, donepezil 5 mg/kg
[13] = HEK293, 18 h, Table 2 (Examples 75-109, 114), read-out: HRE-inceasing 10uM
[14] = HEK293, 18 h, Table 2 (Examples 75-109, 114), read-out: HRE-inceasing 100uM

| Compound | fold induction at 10 µM (HRE/Luc/HEK293 cells; [3]) | HRE expression (HRE/Luc/HEK293 cells; concentration of 10 µM) | percent recovery of cognitive function (Y-maze) at 50 mg/kg (male ICR mice [1]; [4]) [%] | in vivo Y-maze (%) (male ICR mice [1]; [5]) | percent recovery of memory in passive avoidance test (normal group = 100, scopolamine control = 0) at 50 mg/kg (male ICR mice [2]) [%] | in vivo PAT (male ICR mice [2]; [5]) [s] | fold induction at 100 µM (HRE/Luc/HEK293 cells; [6]) | fold induction at 10 µM (HRE/Luc/HEK293 cells; [8]) | fold induction at 100 µM (HRE/Luc/HEK293 cells; [9]) | other results |
| --- | --- | --- | --- | --- | --- | --- | --- | --- | --- | --- |
| CC(C)c1ccc(Cc2ccc(O[C@H]3OC[C@H](O)[C@H](O)[C@H]3O)c(Cl)c2)cc1 [Example 8, (2R,3R,4S,5S)-2-(2-chloro-4-(4-isopropylbenzyl)phenoxy)tetrahydro-2H-pyran-3,4,5-triol] | 4.2 | more than threefold | 43 | 58 | 11 | 58 | – | – | – | HRE assay (HRE/Luc/HEK293 cells): ••• |
| COc1ccc2cc(Cc3ccc(O[C@H]4OC[C@H](O)[C@H](O)[C@H]4O)cc3)ccc2c1 [Example 20, ((2R,3R,4S,5S)-2-(4-(6-methoxynaphthalen-2-yl)methyl)phenoxy)tetrahydro-2H-pyran-3,4,5-triol] | 1 | – | 61 | 69 | 38 | 142 | 1.1 | – | – | percent recovery of cognitive function (Y-maze) at 50 mg/kg (male ICR mice [1]; [7]): ≥ 50% |
| CC(C)c1ccc(Cc2ccc(S[C@H]3OC[C@H](O)[C@H](O)C3O)cc2)cc1 (stereo partly drawn) [Example 27, (2R,4S,5S)-2-((4-(4-isopropylbenzyl)phenyl)thio) tetrahydro-2H-pyran-3,4,5-triol] | 3.7 | more than threefold | 44 | 62 | 28 | 80 | < 1 | – | – | – |
| CC(C)c1ccc(Cc2ccc(O[C@H]3OC[C@H](O)[C@H](O)[C@H]3O)cc2)cc1 [Example 7, (2R,3R,4S,5S)-2-(4-(4-isopropylbenzyl)phenoxy)tetrahydro-2H-pyran-3,4,5-triol] | 3.5 | more than threefold | 57 | 65 | 73 | 179 | < 1 | – | – | HRE assay (HRE/Luc/HEK293 cells): •••; percent recovery of cognitive function (Y-maze) at 50 mg/kg (male ICR mice [1]; [7]): ≥ 50%; cognitive function recovery compared to normal animals, passive avoidance test (effect %) (male ICR mice [2]; donepezil 5 mg/kg): ≥ 50% |
| CC(C)c1ccc(Cc2ccc(O[C@H]3OC[C@H](O)[C@H](O)[C@H]3O)c(F)c2)cc1 [Example 41, (2R,3R,4S,5S)-2-(2-fluoro-4-(4-isopropylbenzyl)phenoxy)tetrahydro-2H-pyran-3,4,5-triol] | – | – | 54 | 59.8 | 16 | 69.6 | – | 3 | 3.2 | HRE expression (HRE/Luc/HEK293 cells; low concentration of 1 µM): more than threefold; percent recovery of cognitive function (Y-maze) at 50 mg/kg (male ICR mice [1]; [7]): ≥ 50% |
| CC(C)(C)c1ccc(Oc2ccc(O[C@H]3OC[C@H](O)[C@H](O)[C@H]3O)cc2)cc1 [Example 36] | 3.5 | more than threefold | 42 | 59 | 17 | 76 | < 1 | – | – | – |
| Cc1ccc(Oc2ccc(O[C@H]3OC[C@H](O)[C@H](O)[C@H]3O)cc2)cc1 [Example 33, (2R,3R,4S,5S)-2-(4-(para-tolyloxy)phenoxy) tetrahydro-2H-pyran-3,4,5-triol] | 3.8 | more than threefold | 30 | 56 | 10 | 58 | 2.5 | – | – | – |
| COc1ccc(Cc2cccc(O[C@H]3OC[C@H](O)[C@H](O)[C@H]3O)c2)cc1 [Example 25, (2R,3R,4S,5S)-2-(3-(4-methoxybenzyl)phenoxy)tetrahydro-2H-pyran-3,4,5-triol] | – | – | 65 | 62 | 1 | 42 | – | – | – | percent recovery of cognitive function (Y-maze) at 50 mg/kg (male ICR mice [1]; [7]): ≥ 50% |
| COc1cc2c(cc1OC)C(=O)C(CC1CCN(Cc3ccccc3)CC1)C2 (centres unmarked) [donepezil, reference compound] | – | – | – | 67 | – | 219 | – | – | – | cognitive function recovery compared to normal animals, Y-maze experiment (effect %) (male ICR mice [1]; compounds 50 mg/kg, donepezil 5 mg/kg, orally for 7 days, scopolamine 1 mg/kg intraperitoneal): 35%; in vivo(effect) Y-maze (%) (male ICR mice [1]; [10]): 72%; in vivo Y-maze (%), range (male ICR mice [1]; [11]): 56-74%; in vivo(effect) Y-maze (%), range (male ICR mice [1]; [12]): 35-111%; cognitive function recovery compared to normal animals, passive avoidance test (effect %) (male ICR mice [2]; donepezil 5 mg/kg): 94%; in vivo(effect) PAT (%) (male ICR mice [2]; [10]): 82%; in vivo PAT (sec), range (male ICR mice [2]; [11]): 173~251 sec; in vivo(effect) PAT (%), range (male ICR mice [2]; [12]): 59-95% |
| COc1ccc(Cc2ccc(O[C@H]3OC[C@H](O)[C@H](O)[C@H]3O)cc2)cc1Cl [Example 37, (2R,3R,4S,5S)-2-(4-(3-chloro-4-methoxybenzyl)phenoxy)tetrahydro-2H-pyran-3,4,5-triol] | – | – | – | – | – | – | – | 1.1 | 1.3 | – |
| CC(C)c1cccc2nc(-c3cccc(O[C@@H]4OC[C@H](O)[C@H](O)[C@H]4O)c3)oc12 [Example 98, (2S,3R,4S,5S)-2-(3-(7-isopropylbenzo[d]oxazol-2-yl)phenoxy)tetrahydro-2H-pyran-3,4,5-triol] | – | – | – | – | – | – | – | – | – | fold induction at 10 µM (HRE/Luc/HEK293 cells; [13]): 1.1; fold induction at 100 µM (HRE/Luc/HEK293 cells; [14]): 1.4 |
| COc1ccc2oc(-c3ccc(O[C@@H]4OC[C@@H](O)[C@H](O)[C@H]4O)cc3)nc2c1 [Example 94, (2S,3R,4S,5R)-2-(4-(5-methoxybenzo[d]oxazol-2-yl)phenoxy)tetrahydro-2H-pyran-3,4,5-triol] | – | – | – | – | – | – | – | – | – | fold induction at 10 µM (HRE/Luc/HEK293 cells; [13]): 3; fold induction at 100 µM (HRE/Luc/HEK293 cells; [14]): 2.2; HRE expression (HRE/Luc/HEK293 cells; low concentration of 1 µM): more than threefold |
| CC[C@H]1CC[C@H](Cc2ccc(O[C@H]3OC[C@H](O)[C@H](O)[C@H]3O)cc2)CC1 [Example 73, (2R,3R,4S,5S)-2-(4-(((1R,4R)-4-ethylcyclohexyl)methyl)phenoxy)tetrahydro-2H-pyran-3,4,5-triol] | – | – | – | – | – | – | – | 2.1 | 3 | – |
| COc1ccc(Cc2ccc(O[C@H]3OC[C@H](O)[C@H](O)[C@H]3N=[N+]=[N-])cc2)cc1 [Example 77, (3S,4R,5R,6R)-5-azido-6-(4-(4-methoxybenzyl)phenoxy)tetrahydro-2H-pyran-3,4-diol] | – | – | – | – | – | – | – | – | – | fold induction at 10 µM (HRE/Luc/HEK293 cells; [13]): 1; fold induction at 100 µM (HRE/Luc/HEK293 cells; [14]): 1.3 |
| COc1ccc(C(=O)c2ccc(O[C@H]3OC[C@H](O)[C@H](O)[C@H]3O)cc2)cc1 [Example 71, (4-methoxyphenyl)(4-(((2R,3R,4S,5S)-3,4,5-trihydroxytetrahydro-2H-pyran-2-yl)oxy)phenyl)methanone] | – | – | – | – | – | – | – | 1.3 | 2 | – |
| COc1ccc(Cc2ccc(O[C@H]3OC[C@H](O)[C@H](O)[C@H]3O)cc2)c(F)c1 [Example 50, (2R,3R,4S,5S)-2-(4-(2-fluoro-4-methoxybenzyl)phenoxy)tetrahydro-2H-pyran-3,4,5-triol] | – | – | – | – | – | – | – | 1 | 1.4 | – |
